Results from ChEMBL document CHEMBL1130877, “The synthesis of new adenosine A3 selective ligands containing bioisosteric isoxazoles” (Bioorg Med Chem Lett, 1998).

Assays:
Adenosine receptor A1 = biological target: T1, Adenosine receptor A1 (Rattus norvegicus, UniProt P25099); experiment: Binding affinity for adenosine A1 receptor as inhibition of 3[H]-R-PIA binding in rat brain; type: tissue-based
T1 sequence (P25099 whole entry): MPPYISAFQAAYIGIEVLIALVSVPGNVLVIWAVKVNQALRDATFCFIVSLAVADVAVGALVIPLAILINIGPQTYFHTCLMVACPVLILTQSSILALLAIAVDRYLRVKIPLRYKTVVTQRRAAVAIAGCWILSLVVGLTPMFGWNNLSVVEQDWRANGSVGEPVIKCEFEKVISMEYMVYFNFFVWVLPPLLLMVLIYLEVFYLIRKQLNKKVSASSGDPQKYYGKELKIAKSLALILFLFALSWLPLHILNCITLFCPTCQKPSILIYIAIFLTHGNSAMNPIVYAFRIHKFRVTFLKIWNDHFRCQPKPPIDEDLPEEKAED

Adenosine receptor A3 = biological target: T2, Adenosine receptor A3 (Homo sapiens, UniProt P0DMS8); experiment: Binding affinity for adenosine A3 receptor as inhibition of [125I]AB-MECA binding to human receptor expressed in HEK 293 cells; type: cell-based, HEK293
T2 sequence (P0DMS8 whole entry): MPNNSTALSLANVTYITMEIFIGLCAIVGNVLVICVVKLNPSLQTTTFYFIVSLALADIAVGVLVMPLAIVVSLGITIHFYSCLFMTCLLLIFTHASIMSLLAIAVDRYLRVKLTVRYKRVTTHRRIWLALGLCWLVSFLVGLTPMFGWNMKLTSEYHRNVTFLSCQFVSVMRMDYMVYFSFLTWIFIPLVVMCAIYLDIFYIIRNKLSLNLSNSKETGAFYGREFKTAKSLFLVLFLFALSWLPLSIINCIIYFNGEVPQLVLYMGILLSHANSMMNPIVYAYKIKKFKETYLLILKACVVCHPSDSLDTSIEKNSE

Adenosine receptor A2a = Adenosine receptor A2a (Rattus norvegicus, UniProt P30543); experiment: Binding affinity for adenosine A2a receptor as inhibition of 3[H]-CGS 21680 binding in rat striatum; type: tissue-based
Sequence of Adenosine receptor A2a (P30543 whole entry): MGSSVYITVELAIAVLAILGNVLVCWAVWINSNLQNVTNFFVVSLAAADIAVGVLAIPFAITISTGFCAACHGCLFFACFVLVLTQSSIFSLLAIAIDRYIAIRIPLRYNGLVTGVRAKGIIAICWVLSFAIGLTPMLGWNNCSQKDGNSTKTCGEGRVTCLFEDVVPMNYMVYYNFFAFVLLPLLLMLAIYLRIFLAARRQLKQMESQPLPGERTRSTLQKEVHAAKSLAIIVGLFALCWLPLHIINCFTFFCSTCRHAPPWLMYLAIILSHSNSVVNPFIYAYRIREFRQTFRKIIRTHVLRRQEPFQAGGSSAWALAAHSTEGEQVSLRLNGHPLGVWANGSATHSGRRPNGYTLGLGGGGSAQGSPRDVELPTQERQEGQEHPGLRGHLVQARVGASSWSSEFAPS

Row | SMILES | Ki (Adenosine receptor A1) | Ki (Adenosine receptor A3) | Ki (Adenosine receptor A2a)
1 | O[C@@H]1[C@H](O)[C@@H](c2ccon2)O[C@H]1n1cnc2c(NCc3cccc(I)c3)nc(Cl)nc21 | 1900 nM | 7.8 nM | 1900 nM
2 | CNC(=O)[C@H]1O[C@@H](n2cnc3c(NCc4ccccc4)ncnc32)[C@H](O)[C@@H]1O | 2400 nM | 41 nM | 2100 nM
3 | CONc1nc(Cl)nc2c1ncn2[C@@H]1O[C@H](c2ccon2)[C@@H](O)[C@H]1O | 620 nM | 31 nM | > 10000 nM
4 | C=C[C@H]1O[C@@H](n2cnc3c(NOC)nc(Cl)nc32)[C@H](O)[C@@H]1O | 1230 nM | 20 nM | > 10000 nM
5 | CONc1nc(Cl)nc2c1ncn2[C@@H]1O[C@H](CCl)[C@@H](O)[C@H]1O | – | 26 nM | –
